Holding throughout (type): cell-based, Escherichia coli
One experiment concerns E. Coli biofilms. Nature of the experiment: Synergistic effect of compounds combined with ampicillin on biofilm. Conditions: in conjunction with ampicillin, FIG. 8. As for the experimental part:
The synergistic effect of compounds combined with antibiotics was tested. Biofilms were grown for 24, 48 or 72 h as described above. After that time planktonic cells were removed, and biofilms were washed twice with 250 μL of sterile phosphate buffered saline (PBS) solution. Two hundred microliters of fresh LB medium with specific concentration of the tested compounds and Ampicillin were dispensed into wells. After 18 h incubation at 37° C., the amount of biofilm was measured by CV staining as described above. For alamarBlue viability test, 4 μL of alamarBlue (Invitrogen) was added and plates were incubated in the Biotek HT plate reader at 37° C. for 4 h. Cell viability was measured as fluorescence at 530/590 nm (excitation/emission) versus compound concentration or initial cell density.
FIG. 8 highlights some of the data collected. […] As a positive control in these experiments IDR-1018 was utilized. IDR-1018 is a non-druggable antibiofilm peptide. IDR 1018 is a known biofilm disruptor that directly acts and degrades (p)ppGpp in cells (de la Fuente-Núñez 2014).

A further experiment concerns E. coli C biofilm. Nature of the experiment: Biofilm Destruction Test (biofilm persistence, crystal violet). Particulars: for effect on biofilm persistence / survival: two days biofilms, FIG. 6; for increase in biofilm persistence: 2 days old biofilm, 18 h, FIG. 7. As for the experimental part: Biofilm Destruction Test—The biofilm destruction was determined. Biofilms were grown for 24 or 48 h as described above. After that time planktonic cells were removed, and biofilms were washed twice with 250 μL of sterile phosphate buffered saline (PBS) solution. Two hundred microliters of fresh LB medium with specific concentration of the tested compounds were dispensed into wells. After 18 h incubation at 37° C., the amount of biofilm was measured by CV staining as described above.
The effect of small molecules on biofilm persistence was tested. Two days biofilms were treated with compounds A and B as well as IDR-1018 and serine hydroxamate.
As described above, antibiotics affect bacterial cell survival in biofilms. Thus, the effect of antibiotic on biofilm persistence was tested. Ampicillin was applied on 2 days old biofilm and the amount of biofilm was analyzed after 18 h.

The test system of another experiment is E. coli C. The experiment in a line: Bacterial growth curves in liquid culture (OD630). Particulars: for effect on bacterial growth (growth curves): liquid culture, 30, 20, 10 and 5 μg/mL, OD630, 18 h, FIG. 2. As for the experimental part:
The bacterial strain of Escherichia coli strain C was used as the model organism for initial screening. A Luria-Bertani (LB-Miller) medium was used as the full medium. Once the biofilms were grown, compounds S3-[…] and S3-G1B were tested for their ability to degrade and inhibit biofilm growth. […] This is likely due to the fact that the stringent response and RelA are not active when the cells are initially grown. Bacterial Growth-The effect of different compounds on bacterial growth was tested by adding compounds at specific concentrations to the bacterial culture (100× diluted overnight culture approx. 10^9 cells) in fresh LB medium. Two hundred microliters were aliquoted into a 96 well plate and placed into Biotek HT plate reader for 18 h at 37° C. Plates were shaken and the optical density (OD630) was measured every 15 min. Antibiotic Susceptibility Test-The antibiotic susceptibility was tested. For the liquid cultures, the minimum inhibitory concentrations (MICs) of the antimicrobial drugs were determined using 96 well plates and the broth dilution method. Suspensions were then incubated at 37° C. for 18 hours in the Biotek HT plate reader (see bacterial growth). For biofilm, the Biofilm Destruction Test discussed below was used with different antibiotic concentrations and the cell density was measured after 18 h. Bacterial concentration was calculated through optical density (OD630), and the lowest concentration causing 80% growth inhibition relative to the growth of the control was deemed to be the MIC. In order to test the effect of compounds on bacterial growth, liquid culture experiments were performed. The S3-[…] compound (hereinafter “compound A”) and S3-G1B compound (hereinafter “compound B”) were applied to the bacterial cultures at the concentrations of 30, 20, 10 and 5 μg/mL. The differences in bacterial growth curves in liquid cultures fortified with the test compounds were measured. The Escherichia coli strain C is sensitive to all types of antibiotics. To test the MIC of ampicillin, a standard growth curve experiment was run with different concentrations of antibiotics. […] Inoculum at 1000× dilution of overnight culture.

For experiment [1], the system named is E. coli C biofilm formation. Nature of the experiment: Biofilm Inhibition Test (crystal violet, OD570/OD600). Conditions: for effect on biofilm formation (crystal violet): 20 μg/mL. As for the experimental part:
Biofilm Inhibition Test—The biofilm inhibition was analyzed. For biofilm formation on a polystyrene surface, flat-bottom 96-well microtiter plates (Corning Inc.) were used. The effect of different compounds on biofilm formation was tested by adding compounds at specific concentrations to the bacterial culture (100× diluted overnight culture approx. 10^9 cells) in fresh LB medium. Two hundred microliters were aliquoted into 96 well plate and placed for 24 or 48 h into 37° C. incubator. Cell density was measured (OD600) using a Multiscan Go plate reader (ThermoFisher), and 30 μL of Gram crystal violet (Remel-3 g CV, 50 mL isopropanol, 50 mL ethanol and 900 mL of purified water) was applied for staining for 1 h. Plates were washed with water and air dried, and crystal violet was solubilized with an ethanol-acetone (4:1) solution. The OD570 was determined from this solution, and the biofilm amount was calculated as the ratio of OD570 to OD600. In order to check the effect of small molecules on biofilm formation, a biofilm inhibition experiment was designed. Compounds A and B were tested at concentration 20 μg/mL. The Innate defense regulator peptide-1018 (IDR-1018) (10 μg/mL) and serine hydroxamate (1 μg/mL) were also included.

The test system of experiment [2] is E. coli C cells in biofilm. The experiment in a line: Antibiotic susceptibility of cells in biofilm (cell density after 18 h treatment). Conditions: 18 h treatment of 2-day biofilm. As for the experimental part: Antibiotic Susceptibility Test—The antibiotic susceptibility was tested. For the liquid cultures, the minimum inhibitory concentrations (MICs) of the antimicrobial drugs were determined using 96 well plates and the broth dilution method. Suspensions were then incubated at 37° C. for 18 hours in the Biotek HT plate reader (see bacterial growth). For biofilm, the Biofilm Destruction Test discussed below was used with different antibiotic concentrations and the cell density was measured after 18 h. Bacterial concentration was calculated through optical density (OD630), and the lowest concentration causing 80% growth inhibition relative to the growth of the control was deemed to be the MIC. Biofilm Destruction Test—The biofilm destruction was determined. Biofilms were grown for 24 or 48 h as described above. After that time planktonic cells were removed, and biofilms were washed twice with 250 μL of sterile phosphate buffered saline (PBS) solution. Two hundred microliters of fresh LB medium with specific concentration of the tested compounds were dispensed into wells. After 18 h incubation at 37° C., the amount of biofilm was measured by CV staining as described above. As cells in the biofilm tend to be more resistant to antibiotics, similar ampicillin concentration was tested to check the effect of 18 h antibiotic treatment on 2-day biofilm growth. […] At 40 μg/mL, a decrease in cell growth was observed of 15%. Starting from 50 μg/mL the cell density was reduced from 53% to 5% (at 90 μg/mL) of the untreated control.

The source of these data is US11666555B2, “RelA inhibitors for biofilm disruption” (DREXEL UNIVERSITY, priority 2017, dated 2023).

With `CCCNc1ncc(-c2cc(-c3cc(C(=O)O)[nH]n3)nc(N)c2C#N)cn1` [Compound S3-G1B], in the experiment with E. Coli biofilms, the “biofilm concentration compared to biofilms treated with just antibiotics” value is “decreasing the biofilm concentration significantly”. For the same molecule, in the experiment on E. Coli biofilms, the “biofilm degradation compared with positive control IDR-1018” value is listed as “outperform IDR-1018”. Besides, the “effect on biofilm persistence / survival” value with E. coli C biofilm was “no significant effect”. Besides, the “effect on bacterial growth (growth curves)” value (from here on “effect on bacterial growth”) in the experiment on E. coli C is “Neither compound showed any effect”; in the experiment with E. coli C (listed as B) it was “no effect”. In addition, the “effect on the initial growth of biofilms” value in experiment [1] is “did not show any effect”. Besides, the “effect on biofilm formation (crystal violet)” value in experiment [1] (FIG. 5B) is given as “slight increase”.
On to `CC1(C)S[C@@H]2[C@H](NC(=O)[C@H](N)c3ccccc3)C(=O)N2[C@H]1C(=O)O` [ampicillin], for which the “decrease in cell growth” value in experiment [2] (40 μg/mL) was 15%. Also, the entries for the “cell density, % of the untreated control” value in experiment [2] (50 μg/mL) and in experiment [2] (90 μg/mL) were 53% and 5%, respectively. The “increase in biofilm persistence” value in the experiment with E. coli C biofilm (Amp 10 (10 μg/mL)) is 1.7 fold; with E. coli C biofilm (Amp 70 (70 μg/mL)), 5.9 fold. The “effect on planktonic growth curve” value in the experiment with E. coli C (low ampicillin concentrations, FIG. 3) is listed as “bacteriostatic effect with a prolonged lag phase”.
With `O=C(N[C@H](C(=O)O)c1ccc(Cl)cc1)c1cc(-c2ccc(O)cc2)n[nH]1` [Compound S3-G1A, (4-chlorophenyl)([(3-(4-hydroxyphenyl)-1H-pyrazol-5-yl]carbonyl)amino)acetic acid], in the experiment with E. Coli biofilms, the “biofilm concentration compared to biofilms treated with just antibiotics” value was “decreasing the biofilm concentration significantly” and the “biofilm degradation compared with positive control IDR-1018” value is reported as “outperform IDR-1018”. Also, in the experiment on E. coli C biofilm, the “effect on biofilm persistence / survival” value was “no significant effect”. Also, the “effect on bacterial growth” value in the experiment with E. coli C is given as “Neither compound showed any effect”. Also, in the experiment with E. coli C (listed as A), the “effect on bacterial growth” value was “no effect”. Besides, the “effect on the initial growth of biofilms” value in experiment [1] was “did not show any effect”. Moreover, the “effect on biofilm formation (crystal violet)” value in experiment [1] (FIG. 5B) is “slight increase”.
As to IDR-1018 [reference compound], the “effect on biofilm persistence / survival” value in the experiment on E. coli C biofilm is “smaller effect on biofilm destruction than on biofilm inhibition”. Besides, the “planktonic growth lower than the untreated control” value in experiment [1] (10 μg/mL, FIG. 5A) is 63%. The “biofilm lower than the untreated control” value in experiment [1] (10 μg/mL, FIG. 5B) was found to be 45%.
Consider `NC(CO)C(=O)NO` (stereo not drawn) [Serine hydroxamate, serine hydroxamate, reference compound], for which the “effect in biofilm inhibition experiment” value in experiment [1] (1 μg/mL, 24 h experiment) is listed as “did not show any effect”.
